Reference: PMC3814362 (Nucleic Acids Research, 2013)

What was measured:
HflX-ND1 = molecular target: T1, HflX-ND1 (Escherichia coli, UniProt P25519); experiment: mant fluorescence emission; format: binding; conditions: labelled compound; 5 µM protein, 1 µM mant-ATP, pH 8.0, 5 mM MgCl2
T1 sequence (P25519 1-120): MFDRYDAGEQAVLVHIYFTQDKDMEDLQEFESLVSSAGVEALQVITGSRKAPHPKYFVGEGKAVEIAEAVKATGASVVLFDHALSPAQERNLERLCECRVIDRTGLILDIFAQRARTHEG

[1] = molecular target: T2, HflX-FL; HflX-WT (EcHflX) (Escherichia coli, UniProt P25519); experiment: mant fluorescence emission; format: binding; conditions: labelled compound; 5 µM protein, 1 µM mant-ATP, pH 8.0, 5 mM MgCl2
T2 sequence (P25519 1-426): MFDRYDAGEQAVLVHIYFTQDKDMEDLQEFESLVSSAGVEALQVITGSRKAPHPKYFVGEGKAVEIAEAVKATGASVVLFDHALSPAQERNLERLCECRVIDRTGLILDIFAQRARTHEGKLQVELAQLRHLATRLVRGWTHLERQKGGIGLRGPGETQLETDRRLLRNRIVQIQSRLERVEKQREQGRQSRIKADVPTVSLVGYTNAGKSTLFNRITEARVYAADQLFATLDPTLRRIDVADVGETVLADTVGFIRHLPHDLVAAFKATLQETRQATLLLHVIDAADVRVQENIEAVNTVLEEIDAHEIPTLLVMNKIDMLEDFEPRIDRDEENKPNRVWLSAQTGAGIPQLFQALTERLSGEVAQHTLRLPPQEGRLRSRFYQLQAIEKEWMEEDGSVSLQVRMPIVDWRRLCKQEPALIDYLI

CNc1ccccc1C(=O)O[C@H]1[C@@H](O)[C@H](n2cnc3c(N)ncnc32)O[C@@H]1COP(=O)(O)OP(=O)(O)OP(=O)(O)O [mant-ATP]
mant fluorescence emission (ex 355 nm) (HflX-ND1): HflX-ND1, like the full-length protein, binds mant-ATP
mant fluorescence emission (ex 355 nm) [1]: HflX-ND1, like the full-length protein, binds mant-ATP
